Values after ≈ are worked out from the molar mass of the structure shown.
Tests used:
[1] = test system: Mus musculus; experiment: Tested in vivo for immunosuppressive activity in mouse using allogenic skin grafting technique(SG); graft survival relative to cyclophosphamide at a dose of 25.0 mg/kg; format: functional
[2] = test system: Mus musculus; experiment: Tested in vivo for immunosuppressive activity in mouse using graft vs. Host rejection technique(GVHR); weight change at a dose of 25.0 mg/kg; format: functional
[3] = test system: Mus musculus; experiment: Tested in vivo for immunosuppressive activity in mouse using allogenic skin grafting technique(SG); mean graft survival at a dose of 25.0 mg/kg; format: functional
[4] = Tested in vitro for cytotoxicity against […](LcV) in cells; format: functional
[5] = species on record: Mus musculus; experiment: Tested for immunosuppressive activity in mouse using allogenic MLR method; format: functional, organism-based
[6] = Non-cytotoxic IMS activity (ratio LcV/MLR) was determined; format: functional
[7] = test system: Mus musculus; experiment: Tested in vivo for immunosuppressive activity in mouse using allogenic skin grafting technique(SG); weight at a dose of 15 mg/kg; format: functional
[8] = test system: Mus musculus; experiment: Tested in vivo for immunosuppressive activity in mouse using graft vs. Host rejection technique(GVHR); spleen weight normalized to D8 body weight at a dose of 1.5 mg/kg; format: functional
[9] = test system: Mus musculus; experiment: Tested in vivo for immunosuppressive activity in mouse using graft vs. Host rejection technique(GVHR); spleen index at a dose of 15.0 mg/kg; format: functional
[10] = test system: Mus musculus; experiment: Tested in vivo for immunosuppressive activity in mouse using allogenic skin grafting technique(SG); weight lost at a dose of 1.5 mg/kg; format: functional
[11] = test system: Mus musculus; experiment: Tested in vivo for immunosuppressive activity in mouse using graft vs. Host rejection technique(GVHR); weight change at a dose of 1.5 mg/kg; format: functional
[12] = test system: Mus musculus; experiment: Tested in vivo for immunosuppressive activity in mouse using allogenic skin grafting technique(SG); graft survival relative to cyclophosphamide at a dose of 1.5 mg/kg; format: functional
[13] = test system: Mus musculus; experiment: Tested in vivo for immunosuppressive activity in mouse using graft vs. Host rejection technique(GVHR); % suppression at a dose of 15 mg/kg; format: functional
[14] = test system: Mus musculus; experiment: Tested in vivo for immunosuppressive activity in mouse using graft vs. Host rejection technique(GVHR); % suppression at a dose of 0.15 mg/kg; format: functional
[15] = test system: Mus musculus; experiment: Tested in vivo for immunosuppressive activity in mouse using graft vs. Host rejection technique(GVHR); body weight at a dose of 0.15 mg/kg; format: functional
[16] = test system: Mus musculus; experiment: Tested in vivo for immunosuppressive activity in mouse using allogenic skin grafting technique(SG); graft survival relative to cyclophosphamide at a dose of 0.15 mg/kg; format: functional
[17] = test system: Mus musculus; experiment: Tested in vivo for immunosuppressive activity in mouse using graft vs. Host rejection technique(GVHR); weight change at a dose of 0.15 mg/kg; format: functional
[18] = test system: Mus musculus; experiment: Tested in vivo for immunosuppressive activity in mouse using allogenic skin grafting technique(SG); mean graft survival at a dose of 1.5 mg/kg; format: functional
[19] = test system: Mus musculus; experiment: Tested in vivo for immunosuppressive activity in mouse using allogenic skin grafting technique(SG); mean graft survival at a dose of 0.15 mg/kg; format: functional
[20] = test system: Mus musculus; experiment: Tested in vivo for immunosuppressive activity in mouse using graft vs. Host rejection technique(GVHR); spleen index at a dose of 0.15 mg/kg; format: functional
[21] = test system: Mus musculus; experiment: Tested in vivo for immunosuppressive activity in mouse using allogenic skin grafting technique(SG); graft survival relative to cyclophosphamide at a dose of 15.0 mg/kg; format: functional
[22] = test system: Mus musculus; experiment: Tested in vivo for immunosuppressive activity in mouse using graft vs. Host rejection technique(GVHR); spleen weight normalized to D8 body weight at a dose of 15.0 mg/kg; format: functional
[23] = test system: Mus musculus; experiment: Tested in vivo for immunosuppressive activity in mouse using allogenic skin grafting technique(SG); mean graft survival at a dose of 15.0 mg/kg; format: functional
[24] = test system: Mus musculus; experiment: Tested in vivo for immunosuppressive activity in mouse using graft vs. Host rejection technique(GVHR); weight change at a dose of 15.0 mg/kg; format: functional
[25] = test system: Mus musculus; experiment: Tested in vivo for immunosuppressive activity in mouse using graft vs. Host rejection technique(GVHR); body weight at a dose of 15.0 mg/kg; format: functional
[26] = test system: Mus musculus; experiment: Tested in vivo for immunosuppressive activity in mouse using graft vs. Host rejection technique(GVHR); % suppression at a dose of 1.5 mg/kg; format: functional
[27] = test system: Mus musculus; experiment: Tested in vivo for immunosuppressive activity in mouse using graft vs. Host rejection technique(GVHR); spleen weight normalized to D8 body weight at a dose of 0.15 mg/kg; format: functional
[28] = test system: Mus musculus; experiment: Tested in vivo for immunosuppressive activity in mouse using graft vs. Host rejection technique(GVHR); body weight at a dose of 1.5 mg/kg; format: functional
[29] = test system: Mus musculus; experiment: Tested in vivo for immunosuppressive activity in mouse using allogenic skin grafting technique(SG); weight lost at a dose of 0.15 mg/kg; format: functional
[30] = test system: Mus musculus; experiment: Tested in vivo for immunosuppressive activity in mouse using graft vs. Host rejection technique(GVHR); spleen index at a dose of 1.5 mg/kg; format: functional
[31] = test system: Mus musculus; experiment: Tested in vivo for immunosuppressive activity in mouse using allogenic skin grafting technique(SG); weight at a dose of 0.15 mg/kg; format: functional
[32] = test system: Mus musculus; experiment: Tested in vivo for immunosuppressive activity in mouse using graft vs. Host rejection technique(GVHR); % suppression at a dose of 15.0 mg/kg; format: functional
[33] = test system: Mus musculus; experiment: Tested in vivo for immunosuppressive activity in mouse using allogenic skin grafting technique(SG); weight at a dose of 1.5 mg/kg; format: functional

Compound `C/C=C/C[C@@H](C)[C@@H](O)[C@H]1C(=O)N[C@@H](CC)C(=O)N(C)CC(=O)N(C)[C@@H](CC(C)C)C(=O)N[C@@H](C(C)C)C(=O)N(C)[C@@H](CC(C)C)C(=O)N[C@@H](C)C(=O)N[C@H](C)C(=O)N(C)[C@@H](CC(C)C)C(=O)N(C)[C@@H](CC(C)C)C(=O)N(C)[C@@H](C(C)C)C(=O)N1C` [CYCLOSPORINE] has a graft survival [1] of 1 days, a Weight change [2] of 2.7% and a Mean graft survival [3] of 9.8 days.
In the case of `COc1cc([C@@H]2c3cc4c(cc3[C@@H](O)[C@H]3COC(=O)[C@H]23)OCO4)cc(OC)c1OC` [EPIPODOPHYLLOTOXIN], the Cytotoxicity [4] is reported as >65 µg/mL, the IC50 [5] is reported as 229 ng/mL (≈ 553 nM) and the Ratio [6] is reported as >284.
Work on `COc1cc([C@@H]2c3cc(O)c(O)cc3[C@@H](O)[C@H]3COC(=O)[C@H]23)cc(OC)c1OC` yielded a Body weight [7] of 0.2 g, a Spleen weight [8] of 4.4 g and an SI [9] of 1. The Body weight [10] was 1 g, the Weight change [11] was 1.9% and the graft survival [12] was 1.12 days. It also gave a Body weight [13] of 18.2 g, an Activity [14] of 170% and a Body weight [15] of 17 g. For the same compound, the graft survival [16] was 1.12 days, the Weight change [17] was 0% and the Mean graft survival [18] was 11 days. It also gave a Mean graft survival [19] of 11 days, an SI [20] of 0.81 and a graft survival [21] of 0.99 days. For the same compound, the Spleen weight [22] was 5.02 g, the Mean graft survival [23] was 9.7 days and the Weight change [24] was -3%. The Body weight [25] was 16.3 g, the Activity [26] was 144% and the Spleen weight [27] was 4.05 g. The Cytotoxicity [4] was >35 µg/mL, the Body weight [28] was 15.8 g and the Body weight [29] was 0.6 g. It also gave an SI [30] of 0.88, a Body weight [31] of 18.3 g and an IC50 [5] of 0.015 ng/mL (≈ 0.0373 nM). The Activity [32] was 100%, the Body weight [33] was 18.5 g and the Ratio [6] was >23333333.
In the case of `COc1cc([C@@H]2c3cc(OC(C)=O)c(OC(C)=O)cc3[C@H](OC(C)=O)[C@H]3COC(=O)[C@H]23)cc(OC)c1OC`, the Cytotoxicity [4] is reported as >26 µg/mL, the IC50 [5] is reported as 60.7 ng/mL (≈ 115 nM) and the Ratio [6] is reported as >428.
In the case of `COc1cc([C@H]2C3=C(COC3=O)Cc3cc(OC(C)=O)c(OC(C)=O)cc32)cc(OC)c1OC`, the Cytotoxicity [4] is reported as >28.5 µg/mL, the IC50 [5] is reported as 366 ng/mL (≈ 781 nM) and the Ratio [6] is reported as >78.

From ChEMBL document CHEMBL1130359, “In vivo immunosuppressive activity of some cyclolignans” (Bioorg Med Chem Lett, 1997)
